# Patent publication US20110319416A1, “Subunit Selective NMDA Receptor Antagonists For The Treatment Of Neurological Conditions” (EMORY UNIVERSITY, priority 2009, published 2011)
# Like-named read-outs stand apart in the source and are kept apart here. Marks after values point to notes of the source that are not given here.
# What was measured:
# [1] = molecular target: T1, NR2C (Homo sapiens, UniProt Q05586+Q14957); details: cited from earlier work
# [2] = molecular target: T2, NR2A (Homo sapiens, UniProt Q05586+Q12879); details: cited from earlier work
# [3] = molecular target: T3, NR2D (Homo sapiens, UniProt O15399+Q05586); assay: Literature functional antagonist potency at NR2D (Table 1); format: cell-based
# [4] = molecular target: T3, NR2D; details: cited from earlier work
# [5] = molecular target: T4, NR2B (Homo sapiens, UniProt Q05586+Q13224); details: cited from earlier work
# [6] = molecular target: T4, NR2B; assay: Literature functional antagonist potency at NR2B (Table 1)
# [7] = molecular target: T3, NR2D; details: Ki estimated from equilibrium binding displacement IC50 at a single concentration; low affinity site; read-out: 2D (μM) Ki*; cited from earlier work
# [8] = molecular target: T2, NR2A; details: Ki estimated from equilibrium binding displacement IC50 at a single concentration; low affinity site; read-out: 2A (μM) Ki*; cited from earlier work
# [9] = molecular target: T3, NR2D; assay: Literature equilibrium binding displacement, NR2D (Table 1)
# [10] = molecular target: T4, NR2B; assay: Literature equilibrium binding displacement, NR2B (Table 1)
# [11] = molecular target: T1, NR2C; details: Ki estimated from equilibrium binding displacement IC50 at a single concentration; low affinity site; read-out: 2C (μM) Ki*; cited from earlier work
# [12] = molecular target: T4, NR2B; details: Ki estimated from equilibrium binding displacement IC50 at a single concentration; low affinity site; read-out: 2B (μM) Ki*; cited from earlier work
# [13] = molecular target: T4, NR2B
# [14] = molecular target: NR1/NR2C (Rattus norvegicus, UniProt Q00961); assay: Two electrode voltage clamp, Xenopus oocytes expressing recombinant NR1/NR2C; format: cell-based
# Experimental: (§1) Quality of synthesized cRNA was assessed by gel electrophoresis, and quantity was estimated by spectroscopy and gel electrophoresis. Stage V and VI oocytes were surgically removed from the ovaries of large, well-fed and healthy Xenopus laevis anesthetized with 3-amino-benzoic acid ethyl ester (3 gm/l) as previously described. Clusters of isolated oocytes were incubated with 292 U/ml Worthington (Freehold, N.J.) type IV collagenase or 1.3 mg/ml collagenase (Life Technologies, Gaithersburg, MD; 17018-029) for 2 hr in Ca^2+-free solution comprised of (in mM) 115 NaCl, 2.5 KCl, and 10 HEPES, pH 7.5, with slow agitation to remove the follicular cell layer. Oocytes were then washed extensively in the same solution supplemented with 1.8 mM CaCl2 and maintained in Barth's solution comprised of (in mM): 88 NaCl, 1 KCl, 2.4 NaHCO3, 10 HEPES, 0.82 MgSO4, 0.33 Ca(NO3)2, and 0.91 CaCl2 and supplemented with 100 μg/m1 gentamycin, 10 μg/ml streptomycin, and 10 μg/ml penicillin. Oocytes were manually defolliculated and injected within 24 hrs of isolation with 3-5 ng of NR1 subunit cRNA and 7-10 ng of NR2 cRNA subunit in a 50 nl volume, or 5-10 ng of AMPA or kainate receptor cRNAs in a 50 nl volume, and incubated in Barth's solution at 18° C. for 1-7 d. Glass injection pipettes had tip sizes ranging from 10-20 microns, and were backfilled with mineral oil.
# (§2) Two electrode voltage-clamp recordings were made 2-7 days post-injection as previously described. Oocytes were placed in a dual-track plexi-glass recording chamber with a single perfusion line that splits in a Y-configuration to perfuse two oocytes. Dual recordings were made at room temperature (23° C.) using two Warner OC725B two-electrode voltage clamp amplifiers, arranged as recommended by the manufacturer. Glass microelectrodes (1-10 Megaohms) were filled with 300 mM KCl (voltage electrode) or 3 M KCl (current electrode). The bath clamps communicated across silver chloride wires placed into each side of the recording chamber, both of which were assumed to be at a reference potential of 0 mV. Oocytes were perfused with a solution comprised of (in mM) 90 NaCl, 1 KCl, 10 HEPES, and 0.5 BaCl2; pH was adjusted by addition of 1-3 M NaOH of HC1 to 7.4. Oocytes were recorded under voltage clamp at −40 mV. […] In some experiments, 10 μM EDTA was obtained by adding a 1:1000 dilution of 10 mM EDTA, in order to chelate contaminant divalent ions such as Zn^2+. […] Concentration effect curves consisting of 4 to 8 concentrations were obtained in this manner. The baseline leak current at −40 mV was measured before and after recording, and the full recording linearly corrected for any change in leak current. […] Each experiment consisted of recordings from 3 to 10 oocytes obtained from a single frog. Results from multiple experiments were pooled, and the average percent responses at antagonist concentrations were fitted by the equation,
# (§3) Percent Response=(100−minimum)/(1+([conc]/IC50)nH)+minimum
# [15] = molecular target: NR1/NR2C (Rattus norvegicus, UniProt P35439+Q00961); assay: as above; format: cell-based; details: logistic fit, minimum forced to 0; read-out: 2C IC50
# Experimental: as §1, §2, §3
# [16] = molecular target: NR1/NR2B (Rattus norvegicus, UniProt P35439+Q00960); assay: Two electrode voltage clamp, Xenopus oocytes expressing recombinant NR1/NR2B; format: cell-based; details: logistic fit, minimum forced to 0; read-out: 2B IC50
# Experimental: as §1, §2, §3
# [17] = molecular target: NR1/NR2B (Rattus norvegicus, UniProt Q00960); assay: as above; format: cell-based
# Experimental: as §1, §2, §3
# [18] = molecular target: homomeric GluR6 kainate receptor (Rattus norvegicus, UniProt P42260); assay: Two electrode voltage clamp, Xenopus oocytes expressing homomeric GluR6; format: cell-based; details: in words
# Experimental: Real time Ca^2+ signals were recorded in 96 well plates using FlexStation II multi-mode plate readers. […] Test compounds were added to each well together with agonist to yield a final well concentration of 10 μM test compound in 0.9% DMSO. Compounds that altered the response of any well compared to on-plate control wells beyond 2.5-fold of the standard deviation (calculated from all wells on the plate) or by more than 40% of the control response on a given plate were selected for secondary screening using two-electrode voltage-clamp recordings from Xenopus oocytes expressing recombinant NR1/NR2D receptors. To complete the secondary screen, we obtained selected compounds in powder form. […] We subsequently initiated novel synthesis on this class of compound.
# Quality of synthesized cRNA was assessed by gel electrophoresis, and quantity was estimated by spectroscopy and gel electrophoresis. Stage V and VI oocytes were surgically removed from the ovaries of large, well-fed and healthy Xenopus laevis anesthetized with 3-amino-benzoic acid ethyl ester (3 gm/l) as previously described. […]
# Two electrode voltage-clamp recordings were made 2-7 days post-injection as previously described. […] Oocytes were recorded under voltage clamp at −40 mV. […] The baseline leak current at −40 mV was measured before and after recording, and the full recording linearly corrected for any change in leak current. […]
# [19] = molecular target: GluR1 (Rattus norvegicus, UniProt P19490); assay: Two electrode voltage clamp, Xenopus oocytes expressing GluR1; format: cell-based
# Experimental: as §1, §2, §3
# [20] = molecular target: NR1/NR2A (Rattus norvegicus, UniProt P35439+Q00959); assay: Two electrode voltage clamp, Xenopus oocytes expressing recombinant NR1/NR2A; format: cell-based; details: logistic fit, minimum forced to 0; read-out: 2A IC50
# Experimental: as §1, §2, §3
# [21] = molecular target: NR1/NR2A (Rattus norvegicus, UniProt Q00959); assay: as above; format: cell-based; details: for 2A percent response at the maximum tested concentration: at 100 μM
# Experimental: as §1, §2, §3
# [22] = molecular target: NR1/NR2D (Rattus norvegicus, UniProt Q62645); assay: Two electrode voltage clamp, Xenopus oocytes expressing recombinant NR1/NR2D; format: cell-based
# Experimental: as §1, §2, §3
# [23] = molecular target: NR1/NR2D (Rattus norvegicus, UniProt P35439+Q62645); assay: as above; format: cell-based; details: logistic fit, minimum forced to 0; read-out: 2D IC50
# Experimental: as §1, §2, §3
# [24] = not surmounted by agonists at 500-fold of EC50
# T3 sequence (O15399 28-1336, other chains not shown): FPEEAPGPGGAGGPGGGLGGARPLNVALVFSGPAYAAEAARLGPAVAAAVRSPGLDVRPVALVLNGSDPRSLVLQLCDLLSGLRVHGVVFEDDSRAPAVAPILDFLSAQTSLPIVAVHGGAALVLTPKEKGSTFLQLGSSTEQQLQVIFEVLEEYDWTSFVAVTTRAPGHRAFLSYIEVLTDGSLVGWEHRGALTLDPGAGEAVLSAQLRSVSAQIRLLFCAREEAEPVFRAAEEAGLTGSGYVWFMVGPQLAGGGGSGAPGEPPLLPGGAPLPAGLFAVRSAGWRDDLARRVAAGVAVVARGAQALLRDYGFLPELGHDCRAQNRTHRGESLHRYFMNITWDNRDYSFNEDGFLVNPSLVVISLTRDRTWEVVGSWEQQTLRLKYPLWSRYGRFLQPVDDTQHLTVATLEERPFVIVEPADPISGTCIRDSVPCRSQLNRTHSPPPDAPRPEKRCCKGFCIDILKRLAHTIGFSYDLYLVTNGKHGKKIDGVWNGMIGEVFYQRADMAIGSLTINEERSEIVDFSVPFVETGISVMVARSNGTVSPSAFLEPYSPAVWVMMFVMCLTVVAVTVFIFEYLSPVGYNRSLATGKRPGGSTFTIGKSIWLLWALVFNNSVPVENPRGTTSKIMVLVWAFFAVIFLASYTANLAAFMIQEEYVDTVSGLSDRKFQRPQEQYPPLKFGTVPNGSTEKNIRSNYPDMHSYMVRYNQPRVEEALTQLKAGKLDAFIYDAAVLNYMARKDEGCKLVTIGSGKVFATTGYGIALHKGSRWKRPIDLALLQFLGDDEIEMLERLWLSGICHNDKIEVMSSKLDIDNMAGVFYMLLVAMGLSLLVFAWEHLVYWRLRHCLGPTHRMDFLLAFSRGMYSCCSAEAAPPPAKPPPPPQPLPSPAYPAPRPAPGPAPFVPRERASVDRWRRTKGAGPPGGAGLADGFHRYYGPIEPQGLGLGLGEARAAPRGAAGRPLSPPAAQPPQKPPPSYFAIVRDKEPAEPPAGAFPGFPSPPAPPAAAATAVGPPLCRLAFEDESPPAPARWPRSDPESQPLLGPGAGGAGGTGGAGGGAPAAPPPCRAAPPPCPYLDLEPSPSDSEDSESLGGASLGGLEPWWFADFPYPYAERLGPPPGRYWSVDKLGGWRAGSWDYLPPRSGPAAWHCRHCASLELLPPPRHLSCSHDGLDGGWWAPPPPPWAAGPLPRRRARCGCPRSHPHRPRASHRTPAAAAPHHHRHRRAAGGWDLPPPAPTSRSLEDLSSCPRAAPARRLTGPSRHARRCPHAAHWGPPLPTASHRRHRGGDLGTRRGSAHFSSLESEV
# Sequence of NR1/NR2A (Rattus norvegicus, UniProt Q00959) (Q00959 23-1464, other chains not shown): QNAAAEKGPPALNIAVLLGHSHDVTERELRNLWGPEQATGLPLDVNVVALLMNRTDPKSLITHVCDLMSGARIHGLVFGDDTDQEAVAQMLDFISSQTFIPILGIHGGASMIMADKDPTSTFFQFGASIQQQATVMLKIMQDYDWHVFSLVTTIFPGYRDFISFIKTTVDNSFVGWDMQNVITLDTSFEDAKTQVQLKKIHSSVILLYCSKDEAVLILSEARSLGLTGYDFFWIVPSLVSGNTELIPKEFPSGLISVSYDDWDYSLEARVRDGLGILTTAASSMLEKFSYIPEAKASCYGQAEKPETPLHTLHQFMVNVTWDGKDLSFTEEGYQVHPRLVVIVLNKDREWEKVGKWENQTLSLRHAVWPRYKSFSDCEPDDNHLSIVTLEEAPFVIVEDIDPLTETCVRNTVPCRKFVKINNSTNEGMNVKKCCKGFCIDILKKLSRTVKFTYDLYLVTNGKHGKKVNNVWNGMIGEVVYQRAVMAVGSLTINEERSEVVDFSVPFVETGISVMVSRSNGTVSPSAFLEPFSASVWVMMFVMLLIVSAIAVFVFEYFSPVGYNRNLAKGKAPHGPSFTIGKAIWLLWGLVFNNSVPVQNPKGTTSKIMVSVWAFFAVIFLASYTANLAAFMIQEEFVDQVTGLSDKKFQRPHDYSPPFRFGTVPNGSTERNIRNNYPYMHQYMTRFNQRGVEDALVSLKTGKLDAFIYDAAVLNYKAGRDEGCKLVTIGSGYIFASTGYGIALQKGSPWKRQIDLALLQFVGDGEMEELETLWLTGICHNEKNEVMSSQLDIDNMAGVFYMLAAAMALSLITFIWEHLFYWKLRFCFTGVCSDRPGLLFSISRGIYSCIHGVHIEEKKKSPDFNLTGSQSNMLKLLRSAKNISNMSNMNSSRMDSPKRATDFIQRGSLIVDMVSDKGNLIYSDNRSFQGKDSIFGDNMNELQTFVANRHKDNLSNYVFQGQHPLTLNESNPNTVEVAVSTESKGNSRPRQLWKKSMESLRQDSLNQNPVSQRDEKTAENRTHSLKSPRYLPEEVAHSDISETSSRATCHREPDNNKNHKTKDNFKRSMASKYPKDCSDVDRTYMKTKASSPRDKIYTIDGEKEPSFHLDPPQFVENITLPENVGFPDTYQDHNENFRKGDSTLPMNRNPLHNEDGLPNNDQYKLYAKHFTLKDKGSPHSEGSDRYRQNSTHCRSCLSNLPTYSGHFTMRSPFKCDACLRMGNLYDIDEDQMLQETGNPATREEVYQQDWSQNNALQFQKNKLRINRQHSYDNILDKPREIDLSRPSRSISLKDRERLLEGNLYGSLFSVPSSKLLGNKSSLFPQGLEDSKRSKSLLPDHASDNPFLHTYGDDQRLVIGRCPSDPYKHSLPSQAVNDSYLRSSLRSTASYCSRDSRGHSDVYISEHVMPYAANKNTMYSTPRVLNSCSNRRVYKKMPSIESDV
# T4 sequence (Q13224 27-1484, other chains not shown): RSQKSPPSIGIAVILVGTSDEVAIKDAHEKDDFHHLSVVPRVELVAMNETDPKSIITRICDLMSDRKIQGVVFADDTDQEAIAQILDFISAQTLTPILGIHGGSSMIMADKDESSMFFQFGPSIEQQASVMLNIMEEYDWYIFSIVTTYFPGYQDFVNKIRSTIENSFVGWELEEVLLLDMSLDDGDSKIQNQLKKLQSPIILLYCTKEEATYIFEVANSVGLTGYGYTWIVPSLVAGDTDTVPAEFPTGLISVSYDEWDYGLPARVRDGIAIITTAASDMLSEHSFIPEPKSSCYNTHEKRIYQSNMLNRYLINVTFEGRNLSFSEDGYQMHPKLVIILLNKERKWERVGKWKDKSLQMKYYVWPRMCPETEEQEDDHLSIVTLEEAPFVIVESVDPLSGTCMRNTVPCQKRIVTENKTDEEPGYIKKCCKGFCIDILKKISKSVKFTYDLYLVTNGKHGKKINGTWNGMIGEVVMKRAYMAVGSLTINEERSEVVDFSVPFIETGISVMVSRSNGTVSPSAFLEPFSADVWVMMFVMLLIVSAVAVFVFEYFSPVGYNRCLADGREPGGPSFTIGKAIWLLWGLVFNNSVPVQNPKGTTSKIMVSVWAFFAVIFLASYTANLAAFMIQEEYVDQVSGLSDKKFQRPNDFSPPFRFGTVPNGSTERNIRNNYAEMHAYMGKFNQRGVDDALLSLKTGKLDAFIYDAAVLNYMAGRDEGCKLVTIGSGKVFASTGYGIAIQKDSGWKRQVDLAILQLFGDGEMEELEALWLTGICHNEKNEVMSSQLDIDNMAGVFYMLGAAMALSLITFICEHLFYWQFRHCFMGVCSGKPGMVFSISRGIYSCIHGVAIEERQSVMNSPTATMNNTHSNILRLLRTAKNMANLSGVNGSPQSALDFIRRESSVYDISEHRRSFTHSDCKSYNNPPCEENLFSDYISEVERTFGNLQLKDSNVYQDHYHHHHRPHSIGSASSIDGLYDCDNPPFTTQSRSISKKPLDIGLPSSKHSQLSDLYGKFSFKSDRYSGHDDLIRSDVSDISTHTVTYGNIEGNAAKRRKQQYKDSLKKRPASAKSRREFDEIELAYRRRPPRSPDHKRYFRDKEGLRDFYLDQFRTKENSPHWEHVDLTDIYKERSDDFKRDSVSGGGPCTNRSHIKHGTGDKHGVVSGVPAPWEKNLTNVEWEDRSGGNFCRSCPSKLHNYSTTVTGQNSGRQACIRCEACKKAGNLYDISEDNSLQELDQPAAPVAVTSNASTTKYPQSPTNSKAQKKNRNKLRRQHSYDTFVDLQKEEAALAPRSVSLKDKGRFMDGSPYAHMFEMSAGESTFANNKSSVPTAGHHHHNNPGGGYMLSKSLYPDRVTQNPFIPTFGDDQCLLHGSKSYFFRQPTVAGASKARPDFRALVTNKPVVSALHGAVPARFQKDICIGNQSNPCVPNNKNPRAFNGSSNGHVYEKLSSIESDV
# Sequence of GluR1 (P19490 19-907): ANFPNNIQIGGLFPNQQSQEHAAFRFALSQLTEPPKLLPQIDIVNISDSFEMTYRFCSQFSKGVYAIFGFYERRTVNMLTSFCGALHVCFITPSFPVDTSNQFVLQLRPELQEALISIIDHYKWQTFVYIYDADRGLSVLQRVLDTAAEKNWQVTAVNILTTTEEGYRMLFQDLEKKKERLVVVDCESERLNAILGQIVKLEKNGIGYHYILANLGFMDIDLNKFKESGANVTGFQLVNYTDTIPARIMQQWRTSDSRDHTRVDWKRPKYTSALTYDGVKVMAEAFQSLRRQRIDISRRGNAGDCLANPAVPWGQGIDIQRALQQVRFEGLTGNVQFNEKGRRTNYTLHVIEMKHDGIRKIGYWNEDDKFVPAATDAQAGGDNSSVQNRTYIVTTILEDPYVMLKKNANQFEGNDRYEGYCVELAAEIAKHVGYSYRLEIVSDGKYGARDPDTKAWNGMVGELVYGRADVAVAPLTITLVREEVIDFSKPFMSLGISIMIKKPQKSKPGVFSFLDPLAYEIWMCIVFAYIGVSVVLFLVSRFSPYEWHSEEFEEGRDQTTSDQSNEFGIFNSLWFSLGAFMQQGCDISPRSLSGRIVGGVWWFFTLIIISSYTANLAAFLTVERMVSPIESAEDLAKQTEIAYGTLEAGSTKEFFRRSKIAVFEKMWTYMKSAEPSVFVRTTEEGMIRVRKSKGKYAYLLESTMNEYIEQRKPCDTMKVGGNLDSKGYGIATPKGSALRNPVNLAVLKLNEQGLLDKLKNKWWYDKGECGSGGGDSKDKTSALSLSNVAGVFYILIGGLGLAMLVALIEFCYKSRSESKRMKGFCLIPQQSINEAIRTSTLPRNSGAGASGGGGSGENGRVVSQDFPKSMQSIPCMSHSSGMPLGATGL
smiles,measurement,setting,value
COc1ccc2c(c1)[C@]13CCCC[C@@H]1[C@H](C2)N(C)CC3 [Dextromethorphan],IC50,"[1]; read-out: 2C (μM) IC50, non-competitive and uncompetitive antagonists",1.1 µM
same,IC50,"[2]; read-out: 2A (μM) IC50, non-competitive and uncompetitive antagonists",11.3 µM
same,2A/2D (ratio of IC50),[3]; IC50 ratio,7.5
same,IC50,"[4]; read-out: 2D (μM) IC50, non-competitive and uncompetitive antagonists",1.5 µM
same,IC50,"[5]; read-out: 2B (μM) IC50, non-competitive and uncompetitive antagonists",3.7 µM
same,2A/2B (ratio of IC50),[6]; IC50 ratio,3.1
"O=C(/C=C/c1c(C(=O)[O-])[nH]c2cc(Cl)cc(Cl)c12)Nc1ccccc1.[Na+] [GV150, 526A]",potency estimated from few doses,[7],0.05 µM
same,potency estimated from few doses,[8],0.08 µM
same,2A/2D (ratio of Ki*),[9],1.6*
same,2A/2B (ratio of Ki*),[10],1.0*
same,potency estimated from few doses,[11],0.11 µM
same,potency estimated from few doses,[12],0.08 µM
C[C@H](N[C@@H](c1cccc2[nH]c(=O)c(=O)[nH]c12)P(=O)(O)O)c1ccc(Br)cc1 [NVP-AAM07],Kb,"[2]; Kb determined by Schild analysis, read-out: 2A (μM) Kb",15.2 µM
same,selectivity for NR2A over NR2B,[2]; Schild analysis (Kb),5 fold
same,2A/2B (ratio of Kb),[13],0.2
same,Kb,"[5]; Kb determined by Schild analysis, read-out: 2B (μM) Kb",78 µM
O=C(O)[C@H]1NCCN(C(=O)c2ccc3ccc4ccccc4c3c2)[C@H]1C(=O)O [UBP141],potency estimated from few doses,"[1]; Ki estimated from functionally determined IC50 at a single agonist concentration, read-out: 2C (μM) Ki**",4.2 µM
same,potency estimated from few doses,"[2]; Ki estimated from functionally determined IC50 at a single agonist concentration, read-out: 2A (μM) Ki**",14.2 µM
same,2A/2D (ratio of Ki**),[3]; functional Ki ratio,5.1**
same,potency estimated from few doses,"[4]; Ki estimated from functionally determined IC50 at a single agonist concentration, read-out: 2D (μM) Ki**",2.8 µM
same,selectivity for NR2D over NR2A,[4]; estimated Ki,~5 fold
same,potency estimated from few doses,"[5]; Ki estimated from functionally determined IC50 at a single agonist concentration, read-out: 2B (μM) Ki**",19.3 µM
same,2A/2B (ratio of Ki**),[6]; functional Ki ratio,0.7**
CCN(CC)C(=S)Oc1ccc(C(=O)Nc2cccc3ccccc23)cc1 [compound 1063],"IC50 (half maximally inhibiting concentration), NR1/NR2C",[14]; in words,low micromolar
same,mode of block of NR1/NR2C receptors,[14]; [24],non-competitive and voltage-independent blocker
same,maximum inhibition of NR1/NR2C receptor function,[14]; voltage clamp,85%
same,IC50,[15],2 µM
same,IC50,[16],1230 µM
same,effect on NR2B-containing receptors,[17]; in words,little effect
same,effect on recombinant kainate receptors,[18],little effect
same,remaining activity at 100 µM,"[19]; at 100 μM, read-out: GluR1 percent effect at the maximum tested concentration",105%
same,effect on recombinant AMPA receptors,[19]; in words,little effect
same,IC50,[20],1370 µM
same,effect on NR2A-containing receptors,[21]; in words,little effect
same,selectivity for NR1/NR2D compared to NR1/NR2A,[22]; fitted IC50 values,> 500 fold
same,"IC50 (half maximally inhibiting concentration), NR1/NR2D",[22]; in words,low micromolar
same,mode of block of NR1/NR2D receptors,[22]; [24],non-competitive and voltage-independent blocker
same,maximum inhibition of NR1/NR2D receptor function,[22]; voltage clamp,85%
same,IC50,[23],1 µM
O=C(O)CCC(=O)N1N=C(c2c(-c3ccccc3)c3cc(Cl)ccc3[nH]c2=O)CC1c1ccc(Br)cc1 (centres unmarked) [compound 1179],IC50,"[14]; logistic fit, minimum forced to 0, read-out: 2C IC50",4 µM
same,IC50,[15],4 µM
same,IC50,[16],22 µM
same,IC50,"[17]; logistic fit, minimum forced to 0, read-out: 2B IC50",22 µM
same,IC50,[20],123 µM
same,IC50,[23],2 µM
O=C(O)CCC(=O)N1N=C(c2c(-c3ccccc3)c3cc(Br)ccc3[nH]c2=O)CC1c1ccc(F)cc1 (centres unmarked) [compound 1184],IC50,[15],33 µM
same,IC50,[16],90 µM
same,2A percent response at the maximum tested concentration,[21],87% at 100 μM
same,IC50,[23],22 µM
Cc1nc2ccc(Br)cc2c(-c2ccccc2)c1C1=NN(C(=O)CCC(=O)O)C(c2ccc(Br)cc2)C1 (centres unmarked) [compound 1210],IC50,[15],33 µM
same,IC50,[16],209 µM
same,2A percent response at the maximum tested concentration,[21],85% at 100 μM
same,IC50,[23],27 µM
